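Briefly, cells in 96-well plates were exposed to five compound concentrations for 48 h, and endpoints were estimated by linear interpolation. At the GI50, growth is halved. The concentration for full growth arrest is given as TGI.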 Where only a bound is given, the exact number is not on record here.

Results on seven molecules are retold here after PubChem BioAssay (NCI).

Some test systems named below: MDA-MB-435; OVCAR-3 ovarian; PC-3 prostate; SK-MEL-28 melanoma; NCI-H522 lung; 786-0 renal; MOLT-4 leukemia; OVCAR-5 ovarian; MDA-MB-231 breast; HOP-62 NSCLC.
Holding throughout (experiment): inhibition of tumour cell growth, NCI panel, 48 h

`C/C(CC(C)(C)N1CC1)=N\NC(=O)Nc1cccc2ccccc12`: the GI50 in the test with MDA-MB-435 was 6.19 µM; with OVCAR-3 ovarian, 2320 nM; in the test on PC-3 prostate it was 5.32 µM; in the test with SK-MEL-28 melanoma, 7.07 µM; with NCI-H522 lung, 2040 nM; with 786-0 renal, 3.04 µM. For the same molecule, the GI50 is 2590 nM with MOLT-4 leukemia, 6.04 µM in the test with OVCAR-5 ovarian, 3.25 µM with MDA-MB-231 breast and 4.12 µM in the test with HOP-62 NSCLC. Also, the TGI came to 19.9 µM with MDA-MB-435; 5.92 µM in the test with OVCAR-3 ovarian; 23.2 µM in the test with PC-3 prostate; 19.8 µM in the test with SK-MEL-28 melanoma; 5.36 µM in the test with NCI-H522 lung; 9.87 µM with 786-0 renal. The TGI with MOLT-4 leukemia was 6.29 µM; in the test on OVCAR-5 ovarian it was 23 µM; in the test on MDA-MB-231 breast, 9.42 µM; in the test with HOP-62 NSCLC it was 15.8 µM.

For the molecule `CN(/N=C/c1ccccc1O)c1ccc2ccccc2n1`, the TGI in the test on MDA-MB-435 is over 100 µM; in the test on OVCAR-3 ovarian, 34.7 µM; with PC-3 prostate it was 34.3 µM; with SK-MEL-28 melanoma it was over 100 µM; in the test on NCI-H522 lung, 80.9 µM; with 786-0 renal, 31.5 µM. Besides, the TGI with MOLT-4 leukemia was 62.6 µM; in the test on OVCAR-5 ovarian, over 100 µM; in the test with MDA-MB-231 breast, over 100 µM; in the test with HOP-62 NSCLC it was 29.9 µM.

`O=C(Nc1n[nH]c2nc(-c3ccc(O)cc3)c(Br)cc12)C1CC1`: the GI50 in the test on MDA-MB-435 is 2.71 µM; in the test with OVCAR-3 ovarian it was 1390 nM; with PC-3 prostate it was 4.49 µM; with SK-MEL-28 melanoma, 3.85 µM; in the test on NCI-H522 lung it was 4330 nM; in the test with 786-0 renal, 4.55 µM. Moreover, the GI50 with MOLT-4 leukemia is 5130 nM; with OVCAR-5 ovarian, 7.46 µM; in the test on MDA-MB-231 breast, 5.52 µM; in the test on HOP-62 NSCLC it was 5.32 µM. The TGI with MDA-MB-435 was 7.29 µM; with OVCAR-3 ovarian, 9.14 µM; in the test on PC-3 prostate, over 23.4 µM; in the test with SK-MEL-28 melanoma, 9.88 µM; in the test on NCI-H522 lung it was 12.1 µM; with 786-0 renal, 14.3 µM. Besides, the TGI is over 25 µM in the test on MOLT-4 leukemia, 21.7 µM in the test with OVCAR-5 ovarian, 16.8 µM in the test with MDA-MB-231 breast and 14 µM in the test on HOP-62 NSCLC.

As for `CC1(C)N=c2cc3c(cc2N1c1ccc(Cl)cc1)=Nc1ccccc1N3c1ccc(Cl)cc1`, the GI50 is 12.1 µM in the test with MDA-MB-435; 4070 nM in the test on OVCAR-3 ovarian; 2.45 µM in the test on PC-3 prostate; 45.3 µM in the test with SK-MEL-28 melanoma; 3930 nM with NCI-H522 lung; 9.66 µM in the test on 786-0 renal. The GI50 with MOLT-4 leukemia is 1530 nM; with OVCAR-5 ovarian, 8.13 µM; in the test on MDA-MB-231 breast, 59.7 µM; in the test with HOP-62 NSCLC it was over 100 µM. For the same molecule, the TGI was over 100 µM in the test on MDA-MB-435; 31.7 µM in the test with OVCAR-3 ovarian; over 100 µM in the test with PC-3 prostate; over 100 µM with SK-MEL-28 melanoma; 74.6 µM in the test on NCI-H522 lung; over 100 µM in the test with 786-0 renal. Moreover, the TGI is 4.04 µM in the test on MOLT-4 leukemia, over 100 µM with OVCAR-5 ovarian, over 100 µM in the test with MDA-MB-231 breast and over 100 µM in the test on HOP-62 NSCLC.

On to `C#Cc1cccc(NC(=O)c2cccc(NC(=O)CCl)c2)c1`, for which the GI50 in the test on MDA-MB-435 was 32.3 µM; with OVCAR-3 ovarian it was 14200 nM; with PC-3 prostate, 18.9 µM; in the test with SK-MEL-28 melanoma it was 43.1 µM; with NCI-H522 lung, 12700 nM; with 786-0 renal, 14.2 µM. Further, the GI50 with MOLT-4 leukemia is 6710 nM; with OVCAR-5 ovarian, 15.8 µM; with MDA-MB-231 breast, 16 µM; in the test on HOP-62 NSCLC it was 27.8 µM. In addition, the TGI with MDA-MB-435 was over 82.5 µM; in the test on OVCAR-3 ovarian, 29.4 µM; in the test with PC-3 prostate it was 70.7 µM; with SK-MEL-28 melanoma, over 82.5 µM; in the test on NCI-H522 lung, 33.4 µM; in the test on 786-0 renal, 28.1 µM. Also, the TGI in the test with MOLT-4 leukemia is 61.2 µM; in the test with OVCAR-5 ovarian, 40.8 µM; in the test on MDA-MB-231 breast, 37.2 µM; in the test on HOP-62 NSCLC, over 82.5 µM.

In the case of `COC(=O)C1=C(C(=O)ON)[C@@H]2C=C[C@@]1([C@@H](Cc1ccccc1)Nc1ccccc1)O2`, the GI50 in the test on MDA-MB-435 is 4.33 µM; in the test with OVCAR-3 ovarian it was 1570 nM; in the test on PC-3 prostate, 1.84 µM; with SK-MEL-28 melanoma it was 1.93 µM; with NCI-H522 lung, 1480 nM; in the test on 786-0 renal, 1.85 µM. Besides, the GI50 was 2860 nM with MOLT-4 leukemia, 15.6 µM in the test on OVCAR-5 ovarian, 1.79 µM in the test with MDA-MB-231 breast and 16.9 µM in the test with HOP-62 NSCLC. For the same molecule, the TGI in the test with MDA-MB-435 amounted to 16.5 µM; in the test with OVCAR-3 ovarian, 3 µM; in the test with PC-3 prostate, 3.74 µM; with SK-MEL-28 melanoma, 3.54 µM; with NCI-H522 lung, 3.41 µM; with 786-0 renal it was 3.57 µM. Moreover, the TGI in the test on MOLT-4 leukemia is 7.71 µM; in the test on OVCAR-5 ovarian, 31 µM; with MDA-MB-231 breast, 3.78 µM; with HOP-62 NSCLC it was 32.4 µM.

For the molecule `CC[C@H]1CCC/C=C/[C@@H]2C[C@H](O)C[C@H]2[C@H](O)/C=C/C(=O)O1`, the GI50 in the test on MDA-MB-435 is 0.0434 µM; in the test with OVCAR-3 ovarian it was 28.1 nM; in the test on PC-3 prostate, 0.0517 µM; in the test on SK-MEL-28 melanoma, 0.0219 µM; in the test on NCI-H522 lung it was 211 nM; with 786-0 renal, 0.0204 µM. Also, the GI50 was 35.4 nM in the test with MOLT-4 leukemia, 0.0464 µM with OVCAR-5 ovarian, 0.0213 µM in the test with MDA-MB-231 breast and 0.0809 µM in the test with HOP-62 NSCLC. The TGI in the test on MDA-MB-435 is over 100 µM; in the test on OVCAR-3 ovarian, 0.104 µM; in the test with PC-3 prostate, over 100 µM; in the test on SK-MEL-28 melanoma, 0.134 µM; in the test on NCI-H522 lung it was 0.634 µM; in the test on 786-0 renal, 0.042 µM. In addition, the results for the TGI with MOLT-4 leukemia, with OVCAR-5 ovarian and with MDA-MB-231 breast were over 100 µM, over 100 µM and 0.0416 µM, respectively.
